According to ChEMBL document CHEMBL5608195, “Identification and biological evaluation of fused tetrahydroisoquinoline derivatives as Wnt/β-catenin signaling inhibitors to suppress colorectal cancer” (Eur J Med Chem, 2024):

Legend:
HCT-116 [1] = assay: Antiproliferative activity against human HCT-116 cells assessed as inhibition rate at 20 uM incubated for 24 hrs by MTT assay relative to control; assay type: functional
RKO = assay: Antiproliferative activity against human RKO cells incubated for 24 hrs by MTT assay; assay type: functional, cell-based
HCT-116 [2] = assay: Antiproliferative activity against human HCT-116 cells incubated for 24 hrs by MTT assay; assay type: functional, cell-based; settings: HCT-116, 24 h

IC50 (HCT-116 [2]) [µM]	SMILES	inhibition at 20 µM (HCT-116 [1]) [%]	IC50 (RKO) [µM]
	CC12c3ccc(Cl)cc3CCN1CCc1c2[nH]c2ccc(F)cc12 (stereo not drawn)	18.4	
	CC12c3ccccc3CC(=O)N1CCc1c2[nH]c2ccccc12 (stereo not drawn)	65.2	
	COc1ccc2[nH]c3c(c2c1)CCN1CCc2ccccc2C31C (stereo not drawn)	10.9	
7.52	Cc1ccc2c(c1)C1(C)c3[nH]c4ccc(Cl)cc4c3CCN1CC2 (stereo not drawn)	92.1	7.28
	CC12c3ccccc3CCN1CCc1c2[nH]c2ccc(OCc3ccccc3)cc12 (stereo not drawn)	20.4	
	CC12c3cc(O)ccc3CN1CCc1c2[nH]c2ccc(Cl)cc12 (stereo not drawn)	26.9	
	CC12c3ccccc3CCN1CCc1c2[nH]c2ccc(Br)cc12 (stereo not drawn)	3.6	
	COc1ccc2c(c1)C1(C)c3[nH]c4ccc(Cl)cc4c3CCN1CC2 (stereo not drawn)	77	
	CC12c3cc(F)ccc3CC(=O)N1CCc1c2[nH]c2ccc(Cl)cc12 (stereo not drawn)	49	
	CC12c3ccc(Cl)cc3CC(=O)N1CCc1c2[nH]c2ccc(Cl)cc12 (stereo not drawn)	70.3	
6.77	CC12c3cc(Cl)ccc3CCN1CCc1c2[nH]c2ccc(Cl)cc12 (stereo not drawn)	89.1	6.84
	Cc1ccc2[nH]c3c(c2c1)CCN1Cc2ccccc2C31C (stereo not drawn)	43.9	
	Cc1ccc2[nH]c3c(c2c1)CCN1CCc2ccccc2C31C (stereo not drawn)	59.5	
	Cc1ccc2c(c1)C1(C)c3[nH]c4ccc(Cl)cc4c3CCN1C2 (stereo not drawn)	64.6	
	C[C@@]12c3ccc(Cl)cc3CCN1CCc1c2[nH]c2ccc(Cl)cc12	84	
	CC12c3ccc(Cl)cc3CCN1CCc1c2[nH]c2ccc(Br)cc12 (stereo not drawn)	3.6	
	CC12c3ccc(F)cc3CCN1CCc1c2[nH]c2ccc(Cl)cc12 (stereo not drawn)	88.7	
	CC12c3ccccc3CCN1CCc1c2[nH]c2ccc(F)cc12 (stereo not drawn)	7.8	
6.36	Cc1ccc2c(c1)CCN1CCc3c([nH]c4ccc(Cl)cc34)C21C (stereo not drawn)	88.3	6.48
	Cc1ccc2[nH]c3c(c2c1)CCN1CCc2cc(Cl)ccc2C31C (stereo not drawn)	22.8	
	C[C@]12c3ccc(Cl)cc3CCN1CCc1c2[nH]c2ccc(Cl)cc12	81	
	CC12c3ccccc3CCN1CCc1c2[nH]c2ccc(Cl)cc12 (stereo not drawn)	83.7	
	Cc1ccc2c(c1)C1(C)c3[nH]c4ccccc4c3CCN1C2 (stereo not drawn)	36	
	CC12c3ccccc3CN1CCc1c2[nH]c2ccc(Cl)cc12 (stereo not drawn)	43.8	
	COc1ccc2[nH]c3c(c2c1)CCN1Cc2ccccc2C31C (stereo not drawn)	28.9	
	COc1ccc2[nH]c3c(c2c1)CCN1CCc2cc(Cl)ccc2C31C (stereo not drawn)	66.7	
	CC12c3cc(F)ccc3CCN1CCc1c2[nH]c2ccc(Cl)cc12 (stereo not drawn)	80.7	
